# From US20220241422A1, “DRUG DELIVERY COMPOSITION AND PHARMACEUTICAL COMPOSITION” (Nihon University, priority 2019, published 2022)
# Legend:
# ALS model mice (G93A) = experiment: Nasal administration test for NAC/PEG-PCL-Tat in ALS model mice (Rota-Rod motor function); type: in vivo, mouse; settings: nasal administration 105 to 120 days of age, 5 days a week; compared with untreated
# Procedure: A drug solution was prepared by dissolving NAC in HEPES buffer solution (pH 7.4) at a concentration of 50 mg/mL.
# The drug solution was administered to G93A for a period from 105 days of age (15 weeks of age) after birth to 120 days of age, at a frequency of 5 days a week. […] Under inhalation anesthesia using a mask in which the vicinity of the nostrils could be opened or closed, 2 μL each of the drug solution was alternately administered to the right and left nasal cavities every 30 seconds using a micropipette (see FIG. 3). Only male mice were used for the test, and in principle, administration was performed in the morning (10:00 to 12:00).
# The motor function was evaluated using Rota-Rod (Muromachi Kikai Co., Ltd.). In order to acclimatize mice to Rota-Rod, mice were trained from 3 weeks (12 weeks of age) before the day of measurement initiation. The rotation speed of Rota-Rod was set to 24 times/minute. The measurement was performed twice a week, and the time (seconds) taken until the mouse fell from Rota-Rod was measured. The cut-off value was set to 300 seconds, while in the case of falling, the average value of three times was used as the score for that day, and measurements were taken up to 122 days after birth.
# [1] = system: ALS model mice (G93A SOD1 transgenic mouse); experiment: Oral administration test for NAC in ALS model mice (Rota-Rod motor function, survival time); type: in vivo; settings: oral administration from 15 weeks of age, vs water-administered group
# Source text: NAC is considered to be effective for treating ALS as a result of its effect of removing active oxygen. Thus, NAC was used as a test drug for ALS treatment.
# As a test animal, G93A SOD1 transgenic mouse (G93A), which is one of the ALS model animals, was used. […] The research group of the present inventors has already reported the characteristics of the change (progression) in the motor dysfunction of this G93A (Miyagisi H et al., J Pharmacol Sci., 118, 225-236 (2012)).
# NAC was orally administered to G93A from 15 weeks of age (105 days of age) after the onset of ALS, and the motor function and the survival time were examined. Water was orally administered as a negative control.
# The motor function was evaluated using Rota-Rod (Muromachi Kikai Co., Ltd.). in order to acclimatize mice to Rota-Rod, mice were trained from 3 weeks (12 weeks of age) before the day of measurement initiation. The rotation speed of Rota-Rod was set to 24 times/minute. The measurement was performed twice a week, and the time (seconds) taken until the mouse fell from Rota-Rod was measured. The cut-off value was set to 300 seconds, while in the case of falling, the average value of three times was used as the score for that day, and measurements were taken up to 133 days after birth.
smiles,measurement,setting,value
"CC(=O)N[C@@H](CS)C(=O)O [NAC, N-Acetyl-Cysteine]","suppression of hypanakinesia (Rota-Rod, FIG. 4A)",ALS model mice (G93A),hypanakinesia was suppressed
same,motor function (Rota-Rod),[1],no difference
same,survival time,[1],no difference
